Assay results as given in US20240217961A1 (MONOPTEROS THERAPEUTICS, INC., priority 2021, published 2024).
≈ marks a conversion by molar mass, not a printed value. Like-named read-outs stand apart in the source and are kept apart here.

Experiments:
[1] = test system: human liver microsomes; experiment: CYP phenotyping, human liver microsomes with or without specific chemical inhibitors; type: in vitro ADME; settings: for Inhibition % / % Remaining at 60 min: human liver microsomes; for % Remaining at 60 min: mean ± SD, n = 3
Description: Human liver microsomes with or without specific inhibitors: By using human liver microsomes with chemical inhibitor, compared to without chemical inhibitor, the incubation was carried out at a concentration of 1 µM with samples taken 0, 15, 30, 45 and 60 min, and analyzed by UPLC-MS/MS to quantitate the concentration of parent remaining. The % remaining was calculated.

[2] = pKa of free form (UV); type: physicochemical
[3] = molecular target: T1, human CYP2A6 (Homo sapiens, UniProt P11509); experiment: CYP phenotyping, recombinant CYP enzyme incubation; type: in vitro ADME
T1 sequence (P11509 1-494): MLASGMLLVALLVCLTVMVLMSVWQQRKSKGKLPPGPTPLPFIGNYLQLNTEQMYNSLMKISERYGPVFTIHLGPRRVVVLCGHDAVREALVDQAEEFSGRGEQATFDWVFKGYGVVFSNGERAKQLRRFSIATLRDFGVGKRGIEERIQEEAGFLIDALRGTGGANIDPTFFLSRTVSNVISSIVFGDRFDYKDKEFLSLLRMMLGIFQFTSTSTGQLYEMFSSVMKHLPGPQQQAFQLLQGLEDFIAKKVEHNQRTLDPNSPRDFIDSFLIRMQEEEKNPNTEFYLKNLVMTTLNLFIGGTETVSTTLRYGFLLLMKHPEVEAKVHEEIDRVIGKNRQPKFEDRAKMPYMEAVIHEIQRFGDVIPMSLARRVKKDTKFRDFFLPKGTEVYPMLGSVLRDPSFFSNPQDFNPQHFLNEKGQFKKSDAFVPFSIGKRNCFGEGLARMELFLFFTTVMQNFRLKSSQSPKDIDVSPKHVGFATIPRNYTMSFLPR
Description: These incubations were carried out at a concentration of 1 µM and contained 50 pmol/ml of CYP protein. Samples were taken at 0, 5, 10, 15, 20 and 30 minutes. The CLint and t1/2 were calculated from the data.

[4] = Approximate solubility of free form in solvents at 25° C. (manual dilution, visual observation); type: physicochemical; settings: thermodynamic from solid, read-out: Solubility (mg/mL) at 25° C.
Description: The experiment was conducted by manual dilution combined with visual observation at 25° C. The total volumes of solvents added were recorded.

inhibition % of (S)-mepazine metabolism ([1]; human liver microsomes with inhibitor of CYP2C8): < 20%
Inhibition % ([1]; CYP1A2 (Furafylline)): 31.6%
% Remaining at 60 min ([1]; CYP1A2 (Furafylline)): 55.3 ± 4.07%
Inhibition % ([1]; CYP2A6 (Tranylcypromine)): 25.6%
% Remaining at 60 min ([1]; CYP2A6 (Tranylcypromine)): 53.4 ± 2.69%
Inhibition % ([1]; CYP2B6 (Ticlopidine)): 22.8%
% Remaining at 60 min ([1]; CYP2B6 (Ticlopidine)): 52.6 ± 3.79%
Inhibition % ([1]; CYP2C8 (Montelukast)): 19.3%
% Remaining at 60 min ([1]; CYP2C8 (Montelukast)): 50.5 ± 4.24%
Inhibition % ([1]; CYP2C9 (Sulfaphenazole)): 33.9%
% Remaining at 60 min ([1]; CYP2C9 (Sulfaphenazole)): 57.4± 2.68%
Inhibition % ([1]; CYP2C19 (N-3-benzylnirvanol)): 24.3%
% Remaining at 60 min ([1]; CYP2C19 (N-3-benzylnirvanol)): 53.1 ± 1.75%
Inhibition % ([1]; CYP2D6 (Quinidine)): 74.4%
% Remaining at 60 min ([1]; CYP2D6 (Quinidine)): 80.9 ± 3.69%
Inhibition % ([1]; CYP3A (Ketoconazole)): 21.4%
% Remaining at 60 min ([1]; CYP3A (Ketoconazole)): 50.2 ± 4.00%
Inhibition % ([1]; Without inhibitor): 0.00%
% Remaining at 60 min ([1]; Without inhibitor): 44.7 ± 2.57%
pKa [2]: 9.24
Contribution % ([3]; CYP2A6): 0.00%
metabolism by recombinant CYP isoform ([3]; recombinant CYP2A6): not found to substantially metabolize
CLint ([3]; recombinant CYP2A6, 1 µM, turnover not significant and > 80% remaining at last time point reported as 0.00): 0.00 μL/min/pmol CYP
t1/2 ([3]; recombinant CYP2A6, 1 µM, turnover not significant and > 80% remaining at last time point reported as ∞): ∞
solubility ([4]; 1,4-dioxane, organic solvent or mixture): > 100 mg/mL
solubility ([4]; 2-propanol, organic solvent or mixture): 33.3 to 50 mg/mL (≈ 107 to 161 mM)
solubility ([4]; DMF, organic solvent or mixture): > 100 mg/mL
solubility ([4]; acetone, organic solvent or mixture): > 100 mg/mL
solubility ([4]; acetonitrile, organic solvent or mixture): 25 to 33.3 mg/mL (≈ 80.5 to 107 mM)
solubility ([4]; dichloromethane, organic solvent or mixture): > 100 mg/mL
solubility ([4]; ethanol, organic solvent or mixture): > 100 mg/mL
solubility ([4]; ethyl acetate, organic solvent or mixture): 50 to 100 mg/mL (≈ 161 to 322 mM)
solubility ([4]; heptane, organic solvent or mixture): 10 to 14.3 mg/mL (≈ 32.2 to 46.1 mM)
solubility ([4]; isopropyl acetate, organic solvent or mixture): 50 to 100 mg/mL (≈ 161 to 322 mM)
solubility ([4]; methanol, organic solvent or mixture): > 100 mg/mL
solubility ([4]; methyl ethyl ketone, organic solvent or mixture): > 100 mg/mL
solubility ([4]; t-butyl methyl ether, organic solvent or mixture): 25 to 33.3 mg/mL (≈ 80.5 to 107 mM)
solubility ([4]; tetrahydrofuran, organic solvent or mixture): > 100 mg/mL
solubility ([4]; toluene, organic solvent or mixture): > 100 mg/mL
solubility ([4]; water): < 2 mg/mL
SMILES: CN1CCC[C@H](CN2c3ccccc3Sc3ccccc32)C1 [(S)-mepazine, (S)-10-((1-methylpiperidin-3-yl)methyl)-10H-phenothiazine]
